# Measurements published in ChEMBL document CHEMBL1212880, “Discovery of (2,4-dihydroxy-5-isopropylphenyl)-[5-(4-methylpiperazin-1-ylmethyl)-1,3-dihydroisoindol-2-yl]methanone (AT13387), a novel inhibitor of the molecular chaperone Hsp90 by fragment based drug design” (J Med Chem, 2010).
# Active and inactive are the calls of the source. The calls are words filed in the database; no cut-off is given here.
# Experiments:
# [1] = target: T1, hERG (KCNH2) (Homo sapiens, UniProt Q12809); experiment: in vitro; settings: HEK293 cells expressing hERG
# T1 sequence (Q12809 whole entry): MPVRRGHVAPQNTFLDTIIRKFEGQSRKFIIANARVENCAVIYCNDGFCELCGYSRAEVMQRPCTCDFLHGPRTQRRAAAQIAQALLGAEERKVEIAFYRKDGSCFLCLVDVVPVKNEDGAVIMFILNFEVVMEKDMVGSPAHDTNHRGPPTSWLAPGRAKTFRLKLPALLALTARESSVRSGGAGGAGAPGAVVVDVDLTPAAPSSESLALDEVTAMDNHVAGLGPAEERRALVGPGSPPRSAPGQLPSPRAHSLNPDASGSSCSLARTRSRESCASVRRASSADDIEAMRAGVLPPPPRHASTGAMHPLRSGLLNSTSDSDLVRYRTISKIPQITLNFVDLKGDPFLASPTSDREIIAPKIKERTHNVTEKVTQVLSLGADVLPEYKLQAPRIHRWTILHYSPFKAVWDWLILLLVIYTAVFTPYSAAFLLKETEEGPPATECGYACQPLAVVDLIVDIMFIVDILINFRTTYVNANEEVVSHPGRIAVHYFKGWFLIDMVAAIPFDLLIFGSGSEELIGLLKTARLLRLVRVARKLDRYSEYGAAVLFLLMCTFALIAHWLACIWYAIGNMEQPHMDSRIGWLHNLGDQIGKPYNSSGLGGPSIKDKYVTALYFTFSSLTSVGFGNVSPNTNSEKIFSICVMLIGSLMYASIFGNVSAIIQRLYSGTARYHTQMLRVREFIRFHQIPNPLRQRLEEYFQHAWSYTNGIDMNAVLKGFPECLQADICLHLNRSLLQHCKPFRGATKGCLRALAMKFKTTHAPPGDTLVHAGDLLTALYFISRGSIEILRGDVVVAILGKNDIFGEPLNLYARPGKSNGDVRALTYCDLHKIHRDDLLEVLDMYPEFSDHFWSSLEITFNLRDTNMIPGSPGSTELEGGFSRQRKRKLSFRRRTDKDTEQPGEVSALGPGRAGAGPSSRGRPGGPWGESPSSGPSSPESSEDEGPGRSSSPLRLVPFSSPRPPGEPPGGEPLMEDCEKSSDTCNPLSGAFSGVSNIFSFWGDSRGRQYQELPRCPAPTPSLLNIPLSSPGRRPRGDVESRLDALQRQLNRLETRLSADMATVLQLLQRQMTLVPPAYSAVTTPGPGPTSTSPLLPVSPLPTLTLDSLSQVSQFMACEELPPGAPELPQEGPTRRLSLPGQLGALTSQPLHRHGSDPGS
# Description: Inhibition of human ERG expressed in HEK293 cells at 30 uM by patch clamp assay
# [2] = Protein binding in human plasma after 6 hrs by equilibrium dialysis method; assay type: ADME, cell-free; settings: read-out: PPB (converted)
# [3] = Dissociation constant, pKa of the compound; assay type: physicochemical
# [4] = Protein binding in mouse plasma after 6 hrs by equilibrium dialysis method; assay type: ADME, cell-free; settings: read-out: PPB (converted)
# [5] = target: T1, hERG (KCNH2); experiment: in vitro; settings: HEK293 cells expressing hERG; remark: listed apart in the source
# Description: Inhibition of human ERG expressed in HEK293 cells at 3 uM by patch clamp assay
# [6] = physchem; settings: buffer, pH 7.4
# [7] = target: CYP3A4 (Homo sapiens, UniProt P08684); experiment: Inhibition of CYP3A4 at 10 uM; assay type: ADME
# Chain of CYP3A4 (P08684 whole entry): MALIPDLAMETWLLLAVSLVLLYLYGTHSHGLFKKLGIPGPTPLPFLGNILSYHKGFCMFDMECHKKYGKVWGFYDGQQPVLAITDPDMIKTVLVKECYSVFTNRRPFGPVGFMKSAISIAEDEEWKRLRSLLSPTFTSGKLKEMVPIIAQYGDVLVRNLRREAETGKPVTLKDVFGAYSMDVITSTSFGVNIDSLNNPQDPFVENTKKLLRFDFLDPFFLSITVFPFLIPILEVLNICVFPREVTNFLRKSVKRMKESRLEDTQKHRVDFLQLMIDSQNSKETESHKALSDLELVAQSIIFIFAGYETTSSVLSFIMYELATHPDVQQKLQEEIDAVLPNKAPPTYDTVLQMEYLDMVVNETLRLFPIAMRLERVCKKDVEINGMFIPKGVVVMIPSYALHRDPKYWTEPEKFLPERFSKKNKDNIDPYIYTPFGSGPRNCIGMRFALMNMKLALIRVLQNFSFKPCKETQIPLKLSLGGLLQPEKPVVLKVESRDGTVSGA
# [8] = Solubility of the compound in phosphate buffer at 15 mg at pH 5.5; assay type: physicochemical
# [9] = Solubility of the compound in lactate buffer at 15 mg at pH 4.2; assay type: physicochemical
# [10] = Solubility of the compound in phosphate buffer at 15 mg at pH 6.5; assay type: physicochemical
# [11] = Solubility of the compound in acetate buffer at 15 mg at pH 5.5; assay type: physicochemical
# [12] = Chemical stability of the compound after 144 hrs; assay type: physicochemical
# [13] = Thermal stability of the compound at 80 degC after 24 hrs; assay type: physicochemical
# [14] = Chemical stability of the compound after 24 hrs; assay type: physicochemical
# [15] = Half life in BALB/c mouse plasma at 2 to 10 mg/kg, iv; assay type: ADME, organism-based; set-up: dose 2-10 mg/kg, route intravenous
# [16] = system: HCT-116; experiment: Antitumor activity against human HCT116 cells xenografted in BALB/c mouse assessed as inhibition of tumor growth at 60 mg/kg, ip qd for 3 days then no dose for 3 days for four dosing cycles measured on day 21 relative to control; assay type: functional; settings: HCT-116, ip, route intraperitoneal
# [17] = Half life in BALB/c mouse muscle at 60 mg/kg, ip; assay type: ADME, organism-based, Muscle tissue; set-up: dose 60 mg/kg, route intraperitoneal
# [18] = system: HCT-116; experiment: Induction of apoptosis in human HCT116 cells assessed as reduction of Raf-1 level at 30 nM after 18 hrs by immunoblotting; assay type: functional, cell-based
# [19] = Oral bioavailability in BALB/c mouse; assay type: ADME, organism-based; settings: in vivo
# [20] = Half life in BALB/c mouse blood at 60 mg/kg, ip; assay type: ADME, organism-based; set-up: dose 60 mg/kg, route intraperitoneal
# [21] = Half life in human HCT116 cells xenografted BALB/c mouse tumor at 60 mg/kg, ip; assay type: ADME, organism-based, Neoplasm, HCT-116; set-up: dose 60 mg/kg, route intraperitoneal
# [22] = target: CYP2C19 (Homo sapiens, UniProt P33261); experiment: Inhibition of CYP2C19 at 10 uM; assay type: ADME
# Chain of CYP2C19 (P33261 whole entry): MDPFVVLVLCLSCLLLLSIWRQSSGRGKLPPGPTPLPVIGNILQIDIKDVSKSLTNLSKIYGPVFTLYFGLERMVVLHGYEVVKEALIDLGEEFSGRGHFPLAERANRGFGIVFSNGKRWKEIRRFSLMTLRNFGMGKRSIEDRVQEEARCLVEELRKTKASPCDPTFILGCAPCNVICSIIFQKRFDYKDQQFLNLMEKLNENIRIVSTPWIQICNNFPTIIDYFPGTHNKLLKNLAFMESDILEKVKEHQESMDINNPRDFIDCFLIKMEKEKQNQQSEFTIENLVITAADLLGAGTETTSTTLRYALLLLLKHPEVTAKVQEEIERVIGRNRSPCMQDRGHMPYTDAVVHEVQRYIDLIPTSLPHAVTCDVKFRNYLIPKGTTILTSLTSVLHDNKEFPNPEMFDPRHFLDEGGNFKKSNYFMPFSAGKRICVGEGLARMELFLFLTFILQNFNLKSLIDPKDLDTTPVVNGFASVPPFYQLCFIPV
# [23] = system: HCT-116; experiment: Induction of apoptosis in human HCT116 cells assessed as reduction of CDK4 level at 30 nM after 18 hrs by immunoblotting; assay type: functional, cell-based
# [24] = Chemical stability of the compound after 48 hrs; assay type: physicochemical
# [25] = Volume of distribution at steady state in BALB/c mouse plasma at 2 to 10 mg/kg, iv; assay type: ADME, organism-based; set-up: dose 2-10 mg/kg, route intravenous; settings: read-out: Vdss
# [26] = system: HCT-116; experiment: Induction of apoptosis in human HCT116 cells assessed as upregulation of Hsp70 level at 10 nM after 18 hrs by immunoblotting; assay type: functional, cell-based
# [27] = system: HCT-116; experiment: Antitumor activity against human HCT116 cells xenografted in BALB/c mouse assessed as inhibition of tumor growth at 60 mg/kg, ip qd for 3 days then no dose for 3 days for four dosing cycles measured on day 21; assay type: functional; settings: HCT-116, ip, route intraperitoneal
# [28] = Clearance in BALB/c mouse plasma at 2 to 10 mg/kg, iv; assay type: ADME, organism-based; set-up: dose 2-10 mg/kg, route intravenous
# [29] = target: CYP2C9 (Homo sapiens, UniProt P11712); experiment: Inhibition of CYP2C9 at 10 uM; assay type: ADME
# Chain of CYP2C9 (P11712 whole entry): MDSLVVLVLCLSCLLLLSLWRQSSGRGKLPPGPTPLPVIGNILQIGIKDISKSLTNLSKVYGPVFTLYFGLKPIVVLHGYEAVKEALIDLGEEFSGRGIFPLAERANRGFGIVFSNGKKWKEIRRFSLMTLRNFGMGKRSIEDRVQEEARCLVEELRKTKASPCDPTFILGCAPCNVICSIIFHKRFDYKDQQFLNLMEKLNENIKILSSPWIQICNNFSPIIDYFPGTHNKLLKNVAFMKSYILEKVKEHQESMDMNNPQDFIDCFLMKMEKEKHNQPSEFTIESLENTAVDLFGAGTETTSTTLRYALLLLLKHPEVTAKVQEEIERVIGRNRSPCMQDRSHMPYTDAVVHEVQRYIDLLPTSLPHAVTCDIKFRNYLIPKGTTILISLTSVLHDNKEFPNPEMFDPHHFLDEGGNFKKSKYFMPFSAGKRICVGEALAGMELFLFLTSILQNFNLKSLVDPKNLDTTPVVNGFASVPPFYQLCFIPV
# [30] = Intrinsic clearance in mouse liver S9 fraction; assay type: ADME, subcellular; settings: for CL: s9
# [31] = system: HCT-116; experiment: Antitumor activity against human HCT116 cells xenografted in BALB/c mouse assessed as inhibition of tumor growth at 80 mg/kg, ip qd for 8 days measured on day 10 relative to control; assay type: functional; settings: HCT-116, ip, route intraperitoneal
# [32] = Clearance in BALB/c mouse plasma at 10 mg/kg, iv; assay type: ADME, organism-based; set-up: dose 10 mg/kg, route intravenous
# [33] = system: HCT-116; experiment: Cytotoxicity against human HCT116 cells at 10 uM by Alamar blue assay; assay type: functional
# [34] = Drug level in human HCT116 cells xenografted nude BALB/c mouse tumor at 40 mg/kg, iv after 24 hrs; assay type: ADME, organism-based, Neoplasm, HCT-116; set-up: dose 40 mg/kg, route intravenous; settings: read-out: Drug uptake
# [35] = system: HCT-116; experiment: Antitumor activity against human HCT116 cells xenografted in BALB/c mouse assessed as delay in tumor growth at 80 mg/kg, ip qd for 8 days; assay type: functional; settings: route intraperitoneal
# [36] = system: HCT-116; experiment: Antitumor activity against human HCT116 cells xenografted in BALB/c mouse assessed as inhibition of tumor growth at 80 mg/kg, ip qd for 8 days measured on day 10; assay type: functional; settings: HCT-116, ip, route intraperitoneal
# [37] = target: Cytochrome P450 2C19 (Homo sapiens, UniProt P33261); experiment: Binding affinity to CYP2C19; assay type: ADME
# Chain of Cytochrome P450 2C19 (P33261 whole entry): as the sequence (P33261 whole entry) above
# [38] = target: Cytochrome P450 2C9 (Homo sapiens, UniProt P11712); experiment: Binding affinity to CYP2C9; assay type: ADME
# Chain of Cytochrome P450 2C9 (P11712 whole entry): as the sequence (P11712 whole entry) above
# [39] = system: HCT-116; experiment: Antitumor activity against human HCT116 cells xenografted in BALB/c mouse assessed as inhibition of tumor growth at 80 mg/kg, ip qd for 8 days measured on day 12 relative to control; assay type: functional; settings: HCT-116, ip, route intraperitoneal
# [40] = system: HCT-116; experiment: Antitumor activity against human HCT116 cells xenografted in BALB/c mouse assessed as inhibition of tumor growth at 80 mg/kg, ip qd for 8 days measured on day 12; assay type: functional; settings: HCT-116, ip, route intraperitoneal
# [41] = Drug level in human HCT116 cells xenografted nude BALB/c mouse tumor at 80 mg/kg, iv after 24 hrs; assay type: ADME, organism-based, Neoplasm, HCT-116; set-up: dose 80 mg/kg, route intravenous; settings: read-out: Drug uptake
smiles,measurement,setting,value
CC(C)c1cc(C(=O)N2Cc3ccc(C(=O)N4CCN(C)CC4)cc3C2)c(O)cc1O,inhibition at 30 µM,[1],49%
same,fraction unbound at 6 h,[2],0.36
same,pKa,[3],6.8
same,fraction unbound at 6 h,[4],0.29
same,inhibition at 3 µM,[5],21%
same,logD,[6],2.1
CC(C)c1cc(C(=O)N2Cc3cccc(N4CCN(C)CC4)c3C2)c(O)cc1O,inhibition at 30 µM,[1],87%
same,inhibition at 10 µM,[7],< 50%
same,inhibition at 3 µM,[5],41%
CC(C)c1cc(C(=O)N2Cc3ccc(NC4CCN(C)CC4)cc3C2)c(O)cc1O,inhibition at 30 µM,[1],72%
same,fraction unbound at 6 h,[2],0.36
same,pKa,[3],9.05
same,solubility,[8],< 3 mg/mL
same,solubility,[9],< 3 mg/mL
same,inhibition at 3 µM,[5],25%
same,solubility,[10],< 3 mg/mL
same,solubility,[11],< 3 mg/mL
same,logD,[6],1.7
CC(C)c1cc(C(=O)N2Cc3ccc(CN4CCOCC4)cc3C2)c(O)cc1O,inhibition at 30 µM,[1],48%
same,pKa,[3],6.9
same,inhibition at 3 µM,[5],25%
same,logD,[6],3.3
CC(C)c1cc(C(=O)N2Cc3ccc(CN4CCN(C)CC4)cc3C2)c(O)cc1O [ONALESPIB],Stability,[12],Stable
same,inhibition at 30 µM,[1],42%
same,Stability,[13],Stable
same,fraction unbound at 6 h,[2],0.36
same,pKa,[3],7.7
same,fraction unbound at 6 h,[4],0.09
same,Stability,[14],Stable
same,half-life,[15],0.9 h
same,solubility,[8],> 30 mg/mL
same,inhibition in vivo at 60 mg/kg,[16],22%
same,solubility,[9],> 30 mg/mL
same,half-life,[17],3 h
same,Activity,[18],Active
same,bioavailability,[19],31%
same,half-life,[20],4.7 h
same,inhibition at 3 µM,[5],7%
same,half-life,[21],65 h
same,inhibition at 10 µM,[22],< 50%
same,Activity,[23],Active
same,solubility,[10],15 mg/mL
same,Stability,[24],Stable
same,Vd,[25],11 L/kg
same,Activity,[26],Active
same,inhibition in vivo at 60 mg/kg,[27],78%
same,clearance,[28],113 mL/min/kg
same,inhibition at 10 µM,[29],< 50%
same,solubility,[11],> 30 mg/mL
same,logD,[6],2.7
same,CL,[30],0.046 mL/min/kg
CC(C)c1cc(C(=O)N2Cc3ccc(N4CCN(C)CC4)cc3C2)c(O)cc1O,inhibition in vivo at 80 mg/kg,[31],19%
same,inhibition at 30 µM,[1],87%
same,clearance,[32],130 mL/min/kg
same,pKa,[3],7.3
same,Activity,[33],0%
same,concentration at 24 h,[34],6.5 µM
same,inhibition at 3 µM,[5],41%
same,Activity,[35],10.5 days
same,inhibition in vivo at 80 mg/kg,[36],81%
same,logD,[6],2.98
same,microsomal CLint,[30]; liver S9 fraction,41 µL/min/mg
CC(C)c1cc(C(=O)N2Cc3ccc(OCCCN4CCOCC4)cc3C2)c(O)cc1O,inhibition at 30 µM,[1],95%
same,pKa,[3],6.9
same,inhibition at 3 µM,[5],51%
same,logD,[6],3.3
CC(C)c1cc(C(=O)N2Cc3ccc(OCCNCC(C)(C)C)cc3C2)c(O)cc1O,inhibition at 30 µM,[1],92%
same,inhibition at 3 µM,[5],53%
CC(C)c1cc(C(=O)N2Cc3ccc(OCCN)cc3C2)c(O)cc1O,inhibition at 30 µM,[1],64%
same,inhibition at 3 µM,[5],11%
same,Activity,[37],Active
same,Activity,[38],Active
CC(C)c1cc(C(=O)N2Cc3cccc(OCCCN4CCOCC4)c3C2)c(O)cc1O,inhibition at 30 µM,[1],83%
same,pKa,[3],7
same,inhibition at 3 µM,[5],23%
same,logD,[6],3.55
CC(C)c1cc(C(=O)N2Cc3ccc(OCCN(C)C)cc3C2)c(O)cc1O,inhibition in vivo at 80 mg/kg,[39],37%
same,inhibition at 30 µM,[1],87%
same,inhibition at 10 µM,[7],34%
same,clearance,[32],170 mL/min/kg
same,pKa,[3],7.85
same,inhibition in vivo at 80 mg/kg,[40],63%
same,inhibition at 3 µM,[5],45%
same,Activity,[35],11.4 days
same,concentration at 24 h,[41],11 µM
same,logD,[6],2.4
same,CL,[30],0.034 mL/min/kg
